Assay results from ChEMBL document CHEMBL1154068, “Synthesis and evaluation of A-seco type triterpenoids for anti-HIV-1protease activity” (Eur J Med Chem, 2009).

Experiments:
[1] = molecular target: Protease (Human immunodeficiency virus 1, UniProt Q9YQ12); test: Inhibition of HIV1 protease
[2] = molecular target: T1, Renin (Homo sapiens, UniProt P00797); test: Inhibition of renin by fluorimetric assay
T1 sequence (P00797 whole entry): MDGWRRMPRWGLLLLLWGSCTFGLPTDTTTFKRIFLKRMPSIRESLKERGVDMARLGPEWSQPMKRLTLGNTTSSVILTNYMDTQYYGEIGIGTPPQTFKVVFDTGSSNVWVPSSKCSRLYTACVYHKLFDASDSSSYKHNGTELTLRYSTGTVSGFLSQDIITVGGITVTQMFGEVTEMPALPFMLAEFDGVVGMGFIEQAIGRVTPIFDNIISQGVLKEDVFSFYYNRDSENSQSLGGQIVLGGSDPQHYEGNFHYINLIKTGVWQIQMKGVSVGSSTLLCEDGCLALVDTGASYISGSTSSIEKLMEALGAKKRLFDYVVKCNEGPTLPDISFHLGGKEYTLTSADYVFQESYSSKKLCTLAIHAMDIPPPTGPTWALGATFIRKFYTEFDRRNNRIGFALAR

[3] = Inhibition of trypsin by fluorimetric assay
[4] = Inhibition of HCV NS3/4A protease by fluorimetric assay; parameters: species or system Hepacivirus hominis

Chain of Protease (Q9YQ12 whole entry): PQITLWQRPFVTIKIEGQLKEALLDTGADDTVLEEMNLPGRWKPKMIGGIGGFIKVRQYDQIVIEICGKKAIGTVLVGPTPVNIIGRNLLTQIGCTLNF

IC50 [1] | IC50 [2] | IC50 [3] | IC50 [4] | Compound
25.4 µM | – | – | – | C[C@@H]1[C@H]2[C@H]3CC[C@@H]4[C@@]5(C)C=C(O)C(=O)C(C)(C)[C@@H]5CC[C@@]4(C)[C@]3(C)CC[C@@]2(C(=O)O)CC[C@H]1C
10.9 µM | > 2050 µM | > 2050 µM | > 205 µM | C=C(C)[C@@H]1CC[C@@]2(C)[C@@H]1[C@@H]1CC[C@@H]3[C@@](C)(CC(=O)O)[C@H](C(C)(C)C(=O)O)CC[C@@]3(C)[C@]1(C)C[C@@H]2O
15.7 µM | > 1990 µM | 856 µM | > 199 µM | C=C(C)[C@@H]1CC[C@]2(C(=O)O)CC[C@]3(C)[C@@H](CC[C@@H]4[C@@](C)(CC(=O)O)[C@H](C(C)(C)C(=O)O)CC[C@]43C)[C@H]12
19.2 µM | – | – | – | CC1(C)CC[C@]2(C(=O)O)CC[C@]3(C)[C@H](CC[C@@H]4[C@@]5(C)C=C(O)C(=O)C(C)(C)[C@@H]5CC[C@]43C)[C@H]2C1
3.9 µM | > 1990 µM | > 1990 µM | > 199 µM | CC1(C)CC[C@]2(C(=O)O)CC[C@]3(C)C(=CC[C@@H]4[C@@](C)(CC(=O)O)[C@H](C(C)(C)C(=O)O)CC[C@]43C)[C@H]2C1
15.8 µM | – | – | – | CC1(C)C(=O)C(O)=C[C@]2(C)[C@H]3C(=O)C[C@@H]4[C@H]5C[C@@](C)(C(=O)O)CC[C@]5(C)CC[C@@]4(C)[C@]3(C)CC[C@@H]12
18.8 µM | – | – | – | C=C(C)[C@@H]1CC[C@]2(C(=O)O)CC[C@]3(C)[C@@H](CC[C@@H]4[C@@]5(C)C=C(O)C(=O)C(C)(C)[C@@H]5CC[C@]43C)[C@H]12
5.7 µM | > 1930 µM | > 1940 µM | > 194 µM | CC(C)(C(=O)O)[C@@H]1CC[C@]2(C)[C@H](C(=O)C=C3[C@H]4C[C@@](C)(C(=O)O)CC[C@]4(C)CC[C@]32C)[C@@]1(C)CC(=O)O
27.4 µM | – | – | – | CC1(C)CC[C@]2(C(=O)O)CC[C@]3(C)C(=CC[C@@H]4[C@@]5(C)CCC(=O)C(C)(C)[C@@H]5CC[C@]43C)[C@H]2C1
30.4 µM | – | – | – | CC1(C)CC[C@]2(CO)CC[C@]3(C)C(=CC[C@@H]4[C@@](C)(CC(=O)O)[C@H](C(C)(C)C(=O)O)CC[C@]43C)[C@H]2C1
47.3 µM | – | – | – | CC(C)[C@@H](NC(=O)[C@]12CCC(C)(C)C[C@@H]1C1=CC[C@@H]3[C@@]4(C)CC[C@H](O)C(C)(C)[C@@H]4CC[C@@]3(C)[C@]1(C)CC2)C(=O)O
17.6 µM | > 1990 µM | > 1990 µM | > 199 µM | C[C@H]1[C@H](C)CC[C@]2(C(=O)O)CC[C@]3(C)C(=CC[C@@H]4[C@@](C)(CC(=O)O)[C@H](C(C)(C)C(=O)O)CC[C@]43C)[C@H]12
14.6 µM | – | – | – | CC(C)[C@H](NC(=O)[C@]12CCC(C)(C)C[C@@H]1C1=CC[C@@H]3[C@@]4(C)CCC(=O)C(C)(C)[C@@H]4CC[C@@]3(C)[C@]1(C)CC2)C(=O)O
88.1 µM | > 1660 µM | > 1660 µM | > 166 µM | CC(C)[C@@H](NC(=O)[C@]12CCC(C)(C)C[C@@H]1C1=CC[C@@H]3[C@@](C)(CC(=O)O)[C@H](C(C)(C)C(=O)O)CC[C@@]3(C)[C@]1(C)CC2)C(=O)O
24.6 µM | – | – | – | COC(=O)[C@@H](NC(=O)[C@]12CCC(C)(C)C[C@@H]1C1=CC[C@@H]3[C@@]4(C)CC[C@H](O)C(C)(C)[C@@H]4CC[C@@]3(C)[C@]1(C)CC2)C(C)C
21.3 µM | – | – | – | COC(=O)[C@@H](NC(=O)[C@]12CCC(C)(C)C[C@@H]1C1=CC[C@@H]3[C@@]4(C)CC[C@H](OC(C)=O)C(C)(C)[C@@H]4CC[C@@]3(C)[C@]1(C)CC2)C(C)C
41.4 µM | – | – | – | COC(=O)[C@H](NC(=O)[C@]12CCC(C)(C)C[C@@H]1C1=CC[C@@H]3[C@@]4(C)CCC(=O)C(C)(C)[C@@H]4CC[C@@]3(C)[C@]1(C)CC2)C(C)C
37 µM | – | – | – | COC(=O)[C@@H](NC(=O)[C@]12CCC(C)(C)C[C@@H]1C1=CC[C@@H]3[C@@]4(C)CCC(=O)C(C)(C)[C@@H]4CC[C@@]3(C)[C@]1(C)CC2)C(C)C
45.2 µM | – | – | – | CC(C)[C@@H](NC(=O)[C@]12CCC(C)(C)C[C@@H]1C1=CC[C@@H]3[C@@]4(C)CCC(=O)C(C)(C)[C@@H]4CC[C@@]3(C)[C@]1(C)CC2)C(=O)O
10.6 µM | – | – | – | CC(C)[C@H](NC(=O)[C@]12CCC(C)(C)C[C@@H]1C1=CC[C@@H]3[C@@]4(C)CC[C@H](O)C(C)(C)[C@@H]4CC[C@@]3(C)[C@]1(C)CC2)C(=O)O
32.3 µM | – | – | – | COC(=O)[C@H](NC(=O)[C@]12CCC(C)(C)C[C@@H]1C1=CC[C@@H]3[C@@]4(C)CC[C@H](O)C(C)(C)[C@@H]4CC[C@@]3(C)[C@]1(C)CC2)C(C)C
49.7 µM | – | – | – | CC(C)[C@@H](NC(=O)[C@]12CCC(C)(C)C[C@@H]1[C@H]1CC[C@@H]3[C@@]4(C)C=C(O)C(=O)C(C)(C)[C@@H]4CC[C@@]3(C)[C@]1(C)CC2)C(=O)O
40.5 µM | – | – | – | CC(C)[C@H](NC(=O)[C@]12CCC(C)(C)C[C@@H]1[C@H]1CC[C@@H]3[C@@]4(C)C=C(O)C(=O)C(C)(C)[C@@H]4CC[C@@]3(C)[C@]1(C)CC2)C(=O)O
28.6 µM | – | – | – | CC1(C)CC[C@]2(C(=O)O)CC[C@]3(C)C(=CC[C@@H]4[C@@]5(C)CC(=O)C(C)(C)[C@@H]5CC[C@]43C)[C@H]2C1
25.4 µM | > 2120 µM | > 2120 µM | 80.3 µM | C=C(C)[C@@H]1CC[C@]2(C)CC[C@]3(C)[C@@H](CC[C@@H]4[C@@](C)(CC(=O)O)[C@H](C(C)(C)C(=O)O)CC[C@]43C)[C@H]12
> 201 µM | – | – | – | CC(=O)O[C@H]1CC[C@]2(C)[C@H]3CC=C4[C@@H]5CC(C)(C)CC[C@]5(C(=O)O)CC[C@@]4(C)[C@]3(C)CC[C@H]2C1(C)C [ACETYL OLEANOLIC ACID]
37.5 µM | – | – | – | C[C@H]1[C@H](C)CC[C@]2(C(=O)O)CC[C@]3(C)C(=CC[C@@H]4[C@@]5(C)CCC(=O)C(C)(C)[C@@H]5CC[C@]43C)[C@H]12 [URSONIC ACID]

Compound | IC50 [1] | IC50 [2] | IC50 [3] | IC50 [4]
CC1(C)C(=O)CC[C@]2(C)[C@H]3C(=O)C=C4[C@H]5C[C@@](C)(C(=O)O)CC[C@]5(C)CC[C@@]4(C)[C@]3(C)CC[C@@H]12 | 23.6 µM | – | – | –
C=C(C)[C@@H]1CC[C@]2(C)CC[C@]3(C)[C@@H](CC[C@@H]4[C@@]5(C)CCC(=O)C(C)(C)[C@@H]5CC[C@]43C)[C@H]12 | > 236 µM | – | – | –
C=C(C)[C@@H]1CC[C@]2(C)CC[C@]3(C)[C@@H](CC[C@@H]4[C@@]5(C)C=C(O)C(=O)C(C)(C)[C@@H]5CC[C@]43C)[C@H]12 | 24.6 µM | – | – | –
C=C(C)[C@@H]1CC[C@]2(C=O)CC[C@]3(C)[C@@H](CC[C@@H]4[C@@]5(C)CCC(=O)C(C)(C)[C@@H]5CC[C@]43C)[C@H]12 | 31.9 µM | – | – | –
